Assay results as given in US20250122147A1, “ARYL CYCLOHEXANEDIONE DERIVATIVE OR SALT THEREOF, PEST CONTROL AGENT CONTAINING SAME, AND METHOD FOR USE THEREOF” (ADEKA Corporation, priority 2021, published 2025).

Test system: Plutella xylostella
Experiment: Insecticidal test against Plutella xylostella
Settings: 500 ppm drug solution; Chinese cabbage seedlings with eggs immersed about 30 sec; six days after immersion; 25° C.
From the text: Six days after the immersion in the drug solution, the number of surviving insects was examined. […] In triplicate using 10 per plot.

Row | SMILES | corrected mortality, rating of assessment
1 | O=C1CC(c2ccc(C(F)(F)F)nc2)CC(O)=C1C(=O)Nc1ccc(Cl)cc1 (stereo not shown) [1-71] | D or higher
2 | O=C1CC(c2ccc(C(F)(F)F)nc2)CC(O)=C1C(=O)Nc1ccnc(F)c1 (stereo not shown) [1-151] | D or higher
3 | O=C1CC(c2ccc(C(F)(F)F)cc2)CC(O)=C1C(=O)Nc1ccc(F)cc1F (stereo not shown) [1-17] | D or higher
4 | O=C1CC(c2ccc(C(F)(F)F)cc2)CC(O)=C1C(=O)Nc1cccc(C(F)(F)F)c1 (stereo not shown) [1-30] | D or higher
5 | Cn1ccc(NC(=O)C2=C(O)CC(c3ccc(C(F)(F)F)cc3)CC2=O)n1 (stereo not shown) [1-167] | D or higher
6 | CC(=O)c1ccc(NC(=O)C2=C(O)CC(c3ccc(C(F)(F)F)cc3)CC2=O)cc1 (stereo not shown) [1-36] | D or higher
7 | O=C1CC(c2ccc(Cl)s2)CC(O)=C1C(=O)Nc1ccc(F)cc1 (stereo not shown) [1-145] | D or higher
8 | CSc1ccc(C2CC(=O)C(C(=O)Nc3ccc(F)cc3)=C(O)C2)cc1 (stereo not shown) [1-208] | D or higher
9 | Cc1ccc(NC(=O)C2=C(O)CC(c3ccc(C(F)(F)F)cc3)CC2=O)cc1 (stereo not shown) [1-15] | D or higher
10 | O=C1CC(c2ccc(SC(F)(F)F)cc2)CC(O)=C1C(=O)Nc1ccc(F)cc1 (stereo not shown) [1-66] | D or higher
11 | Cc1ccc(C2CC(=O)C(C(=O)Nc3ccc(F)cc3)=C(O)C2)cc1 (stereo not shown) [1-63] | D or higher
12 | O=C1CC(c2ccc(C(F)(F)F)cc2)CC(O)=C1C(=O)Nc1cccc2ccccc12 (stereo not shown) [1-39] | D or higher
13 | O=C1CC(c2ccc(C(F)(F)F)cc2)CC(O)=C1C(=O)Nc1cccc([N+](=O)[O-])c1 (stereo not shown) [1-35] | D or higher
14 | O=C1CC(c2ccc(C(F)(F)F)nc2)CC(O)=C1C(=O)Nc1ccc(C(F)(F)F)cc1 (stereo not shown) [1-69] | D or higher
15 | C[S+]([O-])c1ccc(C2CC(=O)C(C(=O)Nc3ccc(Cl)cc3)=C(O)C2)cc1 (stereo not shown) [1-233] | D or higher
16 | O=C1CC(c2ccc(C(F)(F)F)cc2)CC(O)=C1C(=S)Nc1ccccc1F (stereo not shown) [1-94] | D or higher
17 | O=C1CC(c2ccc(C(F)(F)F)cc2)CC(O)=C1C(=O)Nc1ncc(F)cn1 (stereo not shown) [1-155] | D or higher
18 | CS(=O)(=O)c1ccc(C2CC(=O)C(C(=O)Nc3ccc(F)cc3)=C(O)C2)cc1 (stereo not shown) [1-210] | D or higher
19 | O=C1CC(c2ccc(C(F)(F)F)cc2)CC(O)=C1C(=O)Nc1ccc(F)cc1 (stereo not shown) [1-6] | D or higher
20 | O=C1CC(c2ccc(Br)cn2)CC(O)=C1C(=S)Nc1ccc(F)cc1 (stereo not shown) [1-229] | D or higher
21 | Cc1ccc(C2CC(=O)C(C(=O)Nc3ccc(F)cn3)=C(O)C2)cc1 (stereo not shown) [1-148] | D or higher
22 | CSc1ccc(NC(=O)C2=C(O)CC(c3ccc(C(F)(F)F)cc3)CC2=O)cc1 (stereo not shown) [1-49] | D or higher
23 | CC1(c2ccc(C(F)(F)F)cc2)CC(=O)C(C(=S)Nc2ccc(F)cc2)=C(O)C1 (stereo not shown) [1-140] | D or higher
24 | O=C1CC(c2ccc(C(F)(F)F)cc2)CC(O)=C1C(=O)Nc1ccc(F)nc1 (stereo not shown) [1-146] | D or higher
25 | C[S+]([O-])c1ccc(C2CC(=O)C(C(=O)Nc3ccc(F)cc3)=C(O)C2)cc1 (stereo not shown) [1-212] | D or higher
26 | O=C1CC(c2ccc(C(F)(F)F)cc2)CC(O)=C1C(=S)Nc1ccc(F)cc1 (stereo not shown) [1-81] | D or higher
27 | O=C1CC(c2ccc(C(F)(F)F)cc2)CC(O)=C1C(=O)Nc1ccc(S(=O)(=O)C(F)(F)F)cc1 (stereo not shown) [1-53] | D or higher
28 | O=C1CC(c2ccc(C(F)(F)F)c(Cl)c2)CC(O)=C1C(=S)Nc1ccc(C(F)(F)F)cc1 (stereo not shown) [1-77] | D or higher
